# Patent publication US12448377B2, “Heterocyclic compound” (Takeda Pharmaceutical Company Limited, priority 2019, dated 2025)
# Molecular target: T1, human orexin type 2 receptor (Homo sapiens, UniProt O43614)
# T1 construct: expressed in transfected cells
# T1 sequence (O43614 1-444): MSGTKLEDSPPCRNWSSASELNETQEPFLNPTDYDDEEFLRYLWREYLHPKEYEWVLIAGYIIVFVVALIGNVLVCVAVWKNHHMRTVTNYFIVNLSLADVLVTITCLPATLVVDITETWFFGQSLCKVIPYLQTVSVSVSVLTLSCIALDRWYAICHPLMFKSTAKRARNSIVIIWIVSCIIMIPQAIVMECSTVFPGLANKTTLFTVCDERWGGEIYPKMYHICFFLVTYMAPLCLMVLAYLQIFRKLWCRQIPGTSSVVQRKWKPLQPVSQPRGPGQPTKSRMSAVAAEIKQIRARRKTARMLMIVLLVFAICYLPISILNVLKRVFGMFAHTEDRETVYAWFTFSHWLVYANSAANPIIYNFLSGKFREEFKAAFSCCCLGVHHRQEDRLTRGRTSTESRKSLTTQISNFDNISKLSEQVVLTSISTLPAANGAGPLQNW
# Test: Measurement of orexin type 2 receptor agonist activity (calcium fluorescence, CHO cells forcibly expressing human OX2 receptor)
# Format: cell-based
# Details: compound at 3 μM, DMSO = 0%, orexin A (human) 10 nM = 100%
# From the text: To obtain a cell clone stably expressing human orexin type 2 receptor, human orexin type 2 receptor cDNA was inserted into pcDNA3.1(+) plasmid vector (Invitrogen), and a plasmid DNA for expression of human orexin type 2 receptor (pcDNA3.1(+)/hOX2R) was cloned. The plasmid DNA was introduced into CHO-K1 cell by an electroporation method, and human orexin type 2 receptor-expressing clonal cells were obtained by limiting dilution method using G418 drug resistance as a selection marker.
# CHO cells forcibly expressing human OX2 receptor were seeded in each well of 384 well black transparent bottom plate (BD Falcon) at 10,000 cells/well, and cultured for one day in a 5% CO2 incubator at 37° C. After removal of the medium in the cell plate, assay buffer A containing a calcium indicator (HBSS (Thermo Fisher Scientific), 20 mM HEPES (Thermo Fisher Scientific), 0.1% BSA (Sigma-Aldrich), 2.5 μg/mL Fluo-4 AM (DOJINDO Chemical), 0.08% Pluronic F127 (DOJINDO Chemical), 1.25 mM probenecid (DOJINDO Chemical)) was added thereto at 30 μL/well. The plate was stood for 30 min in a 5% CO2 incubator at 37° C., and further stood at room temperature for 30 min. A test compound prepared by diluting with assay buffer B (HBSS, 20 mM HEPES, 0.1% BSA) was added thereto at 10 μL/well, and the fluorescence value was measured by FDSSμCELL (Hamamatsu Photonics K.K.) every one sec for 1 min, and thereafter every two sec for 1 min 40 sec. The activity (%) of the test compound was calculated assuming that variation in the fluorescence value when DMSO was added instead of the test compound was 0%, and variation in the fluorescence value when orexin A (human) (PEPTIDE INSTITUTE, INC.) was added at the final concentration of 10 nM was 100%.
row,"OX2R agonist activity (3 μM, %) [%]",Structure (SMILES)
1,85,"CCS(=O)(=O)NC1CCc2ccc(C)c(=O)n2C1COC1CCC(C)CC1 (racemic) [Example 7, rac-N-[(3S,4R)-7-methyl-4-({[(1s,4S)-4-methylcyclohexyl]oxy}methyl)-6-oxo-1,3,4,6-tetrahydro-2H-quinolizin-3-yl]ethanesulfonamide]"
2,100,"CCC1CCC(OCC2C(NS(=O)(=O)CC)CCc3ccc(C)c(=O)n32)CC1 (racemic) [Example 11, rac-N-[(3S,4R)-4-({[(1s,4S)-4-ethylcyclohexyl]oxy}methyl)-7-methyl-6-oxo-1,3,4,6-tetrahydro-2H-quinolizin-3-yl]ethanesulfonamide]"
3,96,"CCS(=O)(=O)NC1CCc2ccc(C)c(=O)n2C1COC1CCC(C(C)C)CC1 (racemic) [Example 13, rac-N-[(3S,4R)-7-methyl-6-oxo-4-({[(1s,4S)-4-(propan-2-yl)cyclohexyl]oxy}methyl)-1,3,4,6-tetrahydro-2H-quinolizin-3-yl]ethanesulfonamide]"
4,96,"CCS(=O)(=O)NC1CCc2ccc(C)c(=O)n2C1COC1CCC(c2ccccc2)CC1 (racemic) [Example 15, rac-N-[(3S,4R)-7-methyl-6-oxo-4-({[(1s,4S)-4-phenylcyclohexyl]oxy}methyl)-1,3,4,6-tetrahydro-2H-quinolizin-3-yl]ethanesulfonamide]"
5,91,"Cc1ccc2n(c1=O)C(COC1CCC(c3ccccc3)CC1)C(NS(=O)(=O)C1CC1)CC2 (racemic) [Example 16, rac-N-[(3S,4R)-7-methyl-6-oxo-4-({[(1s,4S)-4-phenylcyclohexyl]oxy}methyl)-1,3,4,6-tetrahydro-2H-quinolizin-3-yl]cyclopropanesulfonamide]"
6,89,"Cc1ccccc1C1CCC(OCC2C(NS(C)(=O)=O)CCc3ccc(C)c(=O)n32)CC1 (racemic) [Example 19, rac-N-[(3S,4R)-7-methyl-4-({[(1s,4S)-4-(2-methylphenyl)cyclohexyl]oxy}methyl)-6-oxo-1,3,4,6-tetrahydro-2H-quinolizin-3-yl]methanesulfonamide]"
7,97,"Cc1ccccc1C1CCC(OCC2C(NS(=O)(=O)C3CC3)CCc3ccc(C)c(=O)n32)CC1 (racemic) [Example 20, rac-N-[(3S,4R)-7-methyl-4-({[(1s,4S)-4-(2-methylphenyl)cyclohexyl]oxy}methyl)-6-oxo-1,3,4,6-tetrahydro-2H-quinolizin-3-yl]cyclopropanesulfonamide]"
8,92,"Cc1cccc(C2CCC(OCC3C(NS(C)(=O)=O)CCc4ccc(C)c(=O)n43)CC2)c1 (racemic) [Example 21, rac-N-[(3S,4R)-7-methyl-4-({[(1s,4S)-4-(3-methylphenyl)cyclohexyl]oxy}methyl)-6-oxo-1,3,4,6-tetrahydro-2H-quinolizin-3-yl]methanesulfonamide]"
9,83,"CCS(=O)(=O)NC1CCc2ccc(C)c(=O)n2C1COC1CCC(c2cccc(C)c2)CC1 (racemic) [Example 22, rac-N-[(3S,4R)-7-methyl-4-({[(1s,4S)-4-(3-methylphenyl)cyclohexyl]oxy}methyl)-6-oxo-1,3,4,6-tetrahydro-2H-quinolizin-3-yl]ethanesulfonamide]"
10,96,"CCS(=O)(=O)NC1CCc2ccc(C)c(=O)n2C1COC1CCC(c2ccccc2C)CC1 (racemic) [Example 23, rac-N-[(3S,4R)-7-methyl-4-({[(1s,4S)-4-(2-methylphenyl)cyclohexyl]oxy}methyl)-6-oxo-1,3,4,6-tetrahydro-2H-quinolizin-3-yl]ethanesulfonamide]"

# Second part, the compound before the results:
row,Structure (SMILES),"OX2R agonist activity (3 μM, %) [%]"
1,"CCc1ccc2n(c1=O)C(COC1CCC(C)CC1)C(NS(C)(=O)=O)CC2 (racemic) [Example 2, rac-N-[(3S,4R)-7-ethyl-4-({[(1s,4S)-4-methylcyclohexyl]oxy}methyl)-6-oxo-1,3,4,6-tetrahydro-2H-quinolizin-3-yl]methanesulfonamide]",94
2,"CC1CCC(OCC2C(NS(C)(=O)=O)CCc3cccc(=O)n32)CC1 (racemic) [Example 3, rac-N-[(3S,4R)-4-({[(1s,4S)-4-methylcyclohexyl]oxy}methyl)-6-oxo-1,3,4,6-tetrahydro-2H-quinolizin-3-yl]methanesulfonamide]",89
3,"COC1CCC(OCC2C(NS(C)(=O)=O)CCc3ccc(C)c(=O)n32)CC1 (racemic) [Example 4, N-[(3SR,4RS)-4-{[(4-methoxycyclohexyl)oxy]methyl}-7-methyl-6-oxo-1,3,4,6-tetrahydro-2H-quinolizin-3-yl]methanesulfonamide]",58
4,"Cc1ccc2n(c1=O)C(COC1CCC(C)CC1)C(NS(=O)(=O)C1CC1)CC2 (racemic) [Example 8, rac-N-[(3S,4R)-7-methyl-4-({[(1s,4S)-4-methylcyclohexyl]oxy}methyl)-6-oxo-1,3,4,6-tetrahydro-2H-quinolizin-3-yl]cyclopropanesulfonamide]",80
5,"CCC1CCC(OCC2C(NS(=O)(=O)C3CC3)CCc3ccc(C)c(=O)n32)CC1 (racemic) [Example 10, rac-N-[(3S,4R)-4-({[(1s,4S)-4-ethylcyclohexyl]oxy}methyl)-7-methyl-6-oxo-1,3,4,6-tetrahydro-2H-quinolizin-3-yl]cyclopropanesulfonamide]",97
6,"Cc1ccc2n(c1=O)C(COC1CCC(C(C)C)CC1)C(NS(C)(=O)=O)CC2 (racemic) [Example 12, rac-N-[(3S,4R)-7-methyl-6-oxo-4-({[(1s,4S)-4-(propan-2-yl)cyclohexyl]oxy}methyl)-1,3,4,6-tetrahydro-2H-quinolizin-3-yl] methanesulfonamide]",96
7,"Cc1ccc2n(c1=O)C(COC1CCC(C(C)C)CC1)C(NS(=O)(=O)C1CC1)CC2 (racemic) [Example 14, rac-N-[(3S,4R)-7-methyl-6-oxo-4-({[(1s,4S)-4-(propan-2-yl)cyclohexyl]oxy}methyl)-1,3,4,6-tetrahydro-2H-quinolizin-3-yl]cyclopropanesulfonamide]",100
8,"Cc1ccc2n(c1=O)C(COC1CCC(C(C)(C)C)CC1)C(NS(C)(=O)=O)CC2 (racemic) [Example 17, rac-N-[(3S,4R)-4-({[(1s,4S)-4-tert-butylcyclohexyl]oxy}methyl)-7-methyl-6-oxo-1,3,4,6-tetrahydro-2H-quinolizin-3-yl]methanesulfonamide]",86
9,"CCS(=O)(=O)NC1CCc2ccc(C)c(=O)n2C1COC1CCC(C(C)(C)C)CC1 (racemic) [Example 18, rac-N-[(3S,4R)-4-({[(1s,4S)-4-tert-butylcyclohexyl]oxy}methyl)-7-methyl-6-oxo-1,3,4,6-tetrahydro-2H-quinolizin-3-yl]ethanesulfonamide]",96
10,"Cc1ccc2n(c1=O)C(COC1CCC(C(C)(C)C)CC1)C(NS(=O)(=O)C1CC1)CC2 (racemic) [Example 24, rac-N-[(3S,4R)-4-({[(1s,4S)-4-tert-butylcyclohexyl]oxy}methyl)-7-methyl-6-oxo-1,3,4,6-tetrahydro-2H-quinolizin-3-yl]cyclopropanesulfonamide]",86
11,"Cc1cccc(C2CCC(OCC3C(NS(=O)(=O)C4CC4)CCc4ccc(C)c(=O)n43)CC2)c1 (racemic) [Example 25, rac-N-[(3S,4R)-7-methyl-4-({[(1s,4S)-4-(3-methylphenyl)cyclohexyl]oxy}methyl)-6-oxo-1,3,4,6-tetrahydro-2H-quinolizin-3-yl]cyclopropanesulfonamide]",92
12,"Cc1ccc2n(c1=O)C(COC1CCC(C)CC1)C(NS(=O)(=O)N(C)C)CC2 (racemic) [Example 26, rac-N,N-dimethyl-N′-[(3S,4R)-7-methyl-4-({[(1s,4S)-4-methylcyclohexyl]oxy}methyl)-6-oxo-1,3,4,6-tetrahydro-2H-quinolizin-3-yl]sulfuric diamide]",86
13,"CCC1CCC(OCC2C(NS(=O)(=O)N(C)C)CCc3ccc(C)c(=O)n32)CC1 (racemic) [Example 27, rac-N′-[(3S,4R)-4-({[(1s,4S)-4-ethylcyclohexyl]oxy}methyl)-7-methyl-6-oxo-1,3,4,6-tetrahydro-2H-quinolizin-3-yl]-N,N-dimethylsulfuric diamide]",85
